GI50 and TGI data for twelve compounds are collected here from PubChem BioAssay (NCI).

Some test systems named below: BT-549 breast; HCC-2998 colon; PC-3 prostate; RPMI-8226 leukemia; RXF 393 renal; HT29 colon; MCF7 breast; MOLT-4 leukemia; HCT-15 colon; OVCAR-4 ovarian.
What all share (test): inhibition of tumour cell growth, NCI panel, 48 h

The structures appear in SMILES notation.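 48-hour exposure; five concentrations; linearly interpolated endpoints. GI50 marks 50% less growth. The concentration for full growth arrest is given as TGI.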

Regarding `Cn1cnnc1[S-].[Au+].c1ccc([PH+](c2ccccc2)c2ccccc2)cc1`, the GI50 with BT-549 breast was 1.41 µM; in the assay with HCC-2998 colon it was 1.8 µM; with PC-3 prostate, 1.52 µM; with RPMI-8226 leukemia it was 1.69 µM; in the assay with RXF 393 renal, 1.42 µM. Also, the TGI was 2.76 µM with BT-549 breast; 3.23 µM with HCC-2998 colon; 3.02 µM in the assay on PC-3 prostate; 5.39 µM in the assay on RPMI-8226 leukemia; 2.8 µM in the assay on RXF 393 renal.
On to `COc1cc(N(C)C)c(OC)cc1C=C1C=CC=C1`, for which the TGI in the assay on BT-549 breast, in the assay on HCC-2998 colon, with HT29 colon, in the assay on MCF7 breast, in the assay with MOLT-4 leukemia and in the assay on PC-3 prostate was over 100 µM in each case. For the same compound, in the assay on RXF 393 renal, the TGI was over 100 µM.
Take `O=C(O)c1ccccc1NCn1c(=S)sc2ccccc21`: the TGI in the assay with BT-549 breast was over 100 µM; in the assay on HCT-15 colon, over 100 µM; in the assay on HT29 colon, over 100 µM; with MCF7 breast, 51.7 µM; in the assay on MOLT-4 leukemia, over 100 µM; with OVCAR-4 ovarian, over 100 µM. For the same compound, the figures for the TGI in the assay on PC-3 prostate, with RPMI-8226 leukemia and in the assay on RXF 393 renal were over 100 µM, 95.4 µM and over 100 µM, respectively.
For the compound `COc1ccc(C2NC(=S)NC3=C2CCOc2c3ccc3ccccc23)cc1` (centres undefined), the GI50 is 68.8 µM in the assay with BT-549 breast; 21.4 µM in the assay with HCT-15 colon; 36.6 µM in the assay with HT29 colon; 5.32 µM in the assay on MCF7 breast; 87.1 µM with MOLT-4 leukemia; over 100 µM in the assay on OVCAR-4 ovarian. Moreover, the figures for the GI50 in the assay on PC-3 prostate, in the assay with RPMI-8226 leukemia and in the assay on RXF 393 renal were over 100 µM, 12.8 µM and 1.57 µM, respectively. Further, the TGI with BT-549 breast, in the assay with HCT-15 colon, in the assay with HT29 colon, in the assay on MCF7 breast, with MOLT-4 leukemia and in the assay on OVCAR-4 ovarian was over 100 µM in each case. Besides, the TGI in the assay on PC-3 prostate is over 100 µM; in the assay with RPMI-8226 leukemia, over 100 µM; in the assay with RXF 393 renal, 48 µM.
Take `Cn1c(=O)c2c(nc(N/N=C/c3ccccc3C(=O)O)n2C)n(C)c1=O`: the TGI with BT-549 breast, in the assay on HCT-15 colon, with HT29 colon, in the assay on MCF7 breast, in the assay with MOLT-4 leukemia and in the assay on OVCAR-4 ovarian was over 100 µM throughout. Moreover, the TGI in the assay on PC-3 prostate, with RPMI-8226 leukemia and with RXF 393 renal was over 100 µM in each case.
For the compound `COc1cc2c3c(n(CCCNCCCNCCCN)c(=O)c2cc1OC)-c1cc2c(cc1C3=O)OCO2`, the GI50 in the assay on HCT-15 colon was 73.6 µM; with HT29 colon it was 48.6 µM; with MCF7 breast, over 100 µM; in the assay with MOLT-4 leukemia, 21.2 µM; with OVCAR-4 ovarian, 6.63 µM; with RPMI-8226 leukemia it was over 100 µM. Besides, the GI50 in the assay on RXF 393 renal was over 100 µM. The TGI with HCT-15 colon, in the assay with HT29 colon, in the assay on MCF7 breast, with MOLT-4 leukemia, in the assay on OVCAR-4 ovarian and with RPMI-8226 leukemia was over 100 µM throughout. In the assay on RXF 393 renal, this compound showed a TGI of over 100 µM.
Take `Cc1cc(Cl)ccc1NC(=O)C1C(=O)N(c2ccc(Cl)cc2C)C(=O)/C1=N\NC(N)=S` (centres undefined): the TGI in the assay on HCC-2998 colon is 44.5 µM; with HCT-15 colon, 34.4 µM; with HT29 colon it was 35.4 µM; in the assay with MOLT-4 leukemia, 38 µM; with OVCAR-4 ovarian, 69.7 µM; in the assay with RPMI-8226 leukemia, over 100 µM. In addition, the TGI in the assay on RXF 393 renal is 54.1 µM.
For the compound `O=[N+]([O-])/C=C/c1ccc(Cl)cc1[N+](=O)[O-]`, the GI50 in the assay on BT-549 breast is 3.47 µM; with HCC-2998 colon, 1.85 µM; in the assay on HCT-15 colon it was 2.2 µM; with MOLT-4 leukemia, 3.09 µM; in the assay with OVCAR-4 ovarian it was 4.36 µM; with PC-3 prostate, 2.54 µM. In addition, in the assay on RXF 393 renal, the GI50 is 2.36 µM. The TGI was determined as 10.2 µM in the assay with BT-549 breast; 3.41 µM in the assay on HCC-2998 colon; 5.72 µM with HCT-15 colon; 12.6 µM with MOLT-4 leukemia; 15 µM with OVCAR-4 ovarian; 8.34 µM with PC-3 prostate. In the assay with RXF 393 renal, the TGI turned out to be 4.02 µM.
Turning to `O=C(O)CCCCC1CCSS1` (centres undefined), the TGI in the assay with HCC-2998 colon, in the assay with HCT-15 colon, in the assay with HT29 colon, in the assay on MCF7 breast, with MOLT-4 leukemia and with OVCAR-4 ovarian was over 100 µM each time. The TGI in the assay on PC-3 prostate and in the assay with RPMI-8226 leukemia was over 100 µM throughout.
Regarding `COc1ccc(-c2csc(Nc3cccc(-c4csc(C)n4)c3)n2)cc1`, the GI50 in the assay with BT-549 breast was 8.2 µM; with HCT-15 colon, 0.226 µM; in the assay with HT29 colon, 2.57 µM; in the assay on MCF7 breast, 0.31 µM; in the assay with MOLT-4 leukemia, 0.287 µM; in the assay on PC-3 prostate it was 1.97 µM. Also, the GI50 was 2.52 µM in the assay with RPMI-8226 leukemia and 1.87 µM with RXF 393 renal. Besides, the TGI was 40.3 µM in the assay on BT-549 breast; over 47.7 µM in the assay with HCT-15 colon; over 50 µM in the assay with HT29 colon; over 50 µM in the assay on MCF7 breast; 7.11 µM with MOLT-4 leukemia; over 50 µM in the assay on PC-3 prostate. The values for the TGI in the assay with RPMI-8226 leukemia and with RXF 393 renal were over 50 µM and over 14.9 µM, respectively.
Consider `Cc1cc(S(N)(=O)=O)c(S/C(=N\NS(=O)(=O)c2ccccc2)c2ccc(Cl)cc2)cc1Cl`, for which the GI50 with BT-549 breast is over 100 µM; in the assay with HCT-15 colon, over 100 µM; in the assay on HT29 colon it was over 100 µM; in the assay on MCF7 breast it was 75.3 µM; in the assay on MOLT-4 leukemia, 34.4 µM; in the assay on OVCAR-4 ovarian it was over 100 µM. For the same compound, the GI50 with PC-3 prostate was 38.9 µM. Also, the TGI in the assay on BT-549 breast, in the assay on HCT-15 colon, in the assay on HT29 colon, with MCF7 breast, in the assay on MOLT-4 leukemia and with OVCAR-4 ovarian was over 100 µM in each case. In the assay on PC-3 prostate, this compound came in with a TGI of over 100 µM.
As for `COc1cc2c(c(OC)c1OC)C(=O)NCCC2`, the TGI in the assay on HCC-2998 colon, in the assay with HCT-15 colon, in the assay on HT29 colon, in the assay on MCF7 breast, in the assay with MOLT-4 leukemia and with OVCAR-4 ovarian was over 100 µM in each case. Moreover, the TGI in the assay on RPMI-8226 leukemia and in the assay on RXF 393 renal was over 100 µM in each case.
